# Entries after “also recorded” stand apart in the source; their conditions may differ.
# What was measured:
# BT-20 cells [1] = experiment: Antineoplastic activity of free and liposomal CN (viable cell number, trypan blue); format: cell-based, human; conditions: single administration, 800 uM; listed as free CN
# Procedure: To determine whether this effect leads to enhanced antineoplastic activity, the antineoplastic activity of free and liposomal CN was examined in BT-20 cells. […] Control cells in the liposomal condition received the equivalent levels of liposomes without CN. Following a 24, 48 or 72 hr incubation, cells from six replicate wells were pooled and the number of viable cells determined using trypan blue and a hemocytometer.
# BT-20 cells [2] = experiment: Cellular uptake of free and liposomal antineoplastons into BT-20 cells (reduction of media concentration, HPLC); conditions: for level of uptake associated with equivalent antineoplastic activity (IC50): at IC50 concentration (~0.8 mM CN, 15 mM PN); for dependence of cellular uptake on media concentration: end of eight hour incubation; for uptake rate on second and third days / cellular uptake (qualitative): free compound; for uptake rate on second and third days: day two and three vs first day; for cellular uptake (qualitative): time course up to 72 hours
# Procedure: The time-course and concentration dependency of the cellular uptake of free and liposomally formulated antineoplaston agents in Examples 2, 3 and 4 were assayed by monitoring reductions in media concentrations. The uptake of these antineoplaston agents were examined in BT-20 human breast cancer cells.
# Cellular uptake of free D- and free L-CN (3-phenylacetyl-amino-2, 6, piperidinedione) were investigated in BT-20 cells. Cells were plated in 200 μl of media (3,000 cells/well--96 well plates), and 24 or 96 hrs later the plating media was replaced with fresh media containing free CN at final concentrations of 100, 300, 500, 800 μM. The levels of CN remaining in the media were determined following 0, 2, 4, 6, 8, 24, 48 and 72 hours of incubation. When the cellular uptake of liposomal antineoplastons was assessed, the total levels of liposomes were equivalent across all levels of the test agents.
# At the indicated times after the addition of the test compound, the media was harvested, centrifuged (110 ×g; 10 min; 4° C.) and the supernatant stored at -70° C. until assayed using a validated HPLC method. For each test agent, all concentrations were tested at all time points and there were six replicate wells at each time point. Media from the replicate wells was pooled for the HPLC analysis. Compound levels were determined with at least two HPLC injections and the variance between injections was less than 10%.
# Cellular uptake of free PN was investigated in BT-20 cells.
# Cellular uptake of liposomal CN was investigated in BT-20 cells.
# cell growth [3] = experiment: In vitro dose-response studies on individual components of antineoplaston therapy (cell growth); format: cell-based; conditions: Homo sapiens; free compound; cell line not stated (uptake example in BT-20); read-out: IC50 (antineoplastic activity)
# [4] = test system: BT-20 human breast cancer cells; experiment: Uptake and intracellular levels of free and bound CN and PG/Iso-PG (intracellular metabolism of free and liposomal CN); format: in vitro ADME; conditions: 24 hr
# Procedure: At selected times the cells were washed (3×with PBS), trypsinized, pooled, and homogenized in 200 μl of isotonic saline. […] Antineoplaston components or their derivatives found in the supernatant are considered to be unbound or "free", while antineoplaston agents in the pellet are thought to be "bound" to protein or cellular structures easily pelleted by low gravity centrifugation. […] To better understand the time course of the intracellular fate of liposomal CN, BT-20 cells were exposed as in Example 5 to liposomal CN for 1, 2 and 4 hours.
# cell growth [5] = conditions: in vitro, cited from earlier work
# U87 cells = experiment: Cellular uptake of free and liposomal PN and PG in U87 cells
# Procedure: Experiments with this cell line plated 3000 cells per well and following a four day interval to allow the cells to enter the exponential growth phase the test agents were added. The media was replaced on day three and cell counts were obtained at day 3 and 7.
# [6] = test system: human glioblastoma (U87) cells; experiment: Antineoplastic effect of free and liposomal AS2-1, PG and PN (cell counts); conditions: U-87 MG, 72 h, read-out: IC50 (concentration producing a half maximal antineoplastic effect)
structure (smiles),measurement,setting,value
"O=C1CCC(NC(=O)Cc2ccccc2)C(=O)N1 (centres unmarked) [CN, 3-phenylacetyl-amino-2,6, piperidinedione]",antineoplastic activity / suppression of BT-20 cell growth,BT-20 cells [1],ineffective in suppressing BT-20 cell growth; also recorded: no antineoplastic activity
same,cellular uptake by 72 hours,BT-20 cells [2]; 72 hours,approximating that produced by liposomal CN during a two hour incubation
same,level of uptake associated with equivalent antineoplastic activity (IC50),BT-20 cells [2],~ 30 pmoles/cell
same,dependence of cellular uptake on media concentration,BT-20 cells [2],linearly related to media concentration
same,IC50,cell growth [3],~0.8 mM
same,Uptake of CN,[4]; 800 μM CN (53 pmole/cell) added,43.2 pmole/cell
same,Free intracellular PG/Iso-PG,[4]; 800 μM CN added,36.7 pmole/cell
same,Free intracellular CN,"[4]; 800 μM, ND = Not detected",intact CN cannot be found inside the cells
same,suppression of cell growth,cell growth [5]; at ~0.8 mM,50%
same,antineoplastic activity on a molar basis,cell growth [5]; relative to other components,most potent antineoplastic activity
O=C1CC[C@@H](NC(=O)Cc2ccccc2)C(=O)N1 [D-CN],uptake rate on second and third days,BT-20 cells [2],do not exhibit this late stage reduction in CN uptake
same,cellular uptake (qualitative),BT-20 cells [2],rapidly and extensively taken up
O=C1CC[C@H](NC(=O)Cc2ccccc2)C(=O)N1 [L-CN],cellular uptake during the first six hours,BT-20 cells [2]; free D-CN vs free L-CN,more effectively than free D-CN
same,uptake rate on second and third days,BT-20 cells [2],the rate of uptake is diminished on the second and third days of the incubation
same,cellular uptake (qualitative),BT-20 cells [2],rapidly and extensively taken up
"O=C(O)Cc1ccccc1 [PN, phenylacetate]",uptake per cell,"U87 cells; 30 mM free PN, U87 cells, 3 day",50 pmol
same,uptake of free compound compared (PN vs PG),U87 cells; 3 day interval,equivalent and is concentration dependent
same,uptake per cell,"BT-20 cells [2]; BT-20 cells, 30 mM, comparison value",~ 55 pmole
same,level of uptake associated with equivalent antineoplastic activity (IC50),BT-20 cells [2],~ 30 pmoles/cell
same,dependence of cellular uptake on media concentration,BT-20 cells [2],linearly related to media concentration
same,cellular uptake (qualitative),BT-20 cells [2],concentration- and time-dependent take up
same,time to completion of uptake,"BT-20 cells [2]; high concentrations (e.g., 30 mM)",completed within the first two hours
same,cellular uptake,BT-20 cells [2]; initial media concentration 30 mM,~ 54 pmoles/BT-20 cell
same,cellular uptake,BT-20 cells [2]; media concentration 3.0 mM,~ 14 pmoles/BT-20 cell
same,IC50,[6],~15 mM
same,IC50,cell growth [3],~15 mM
